Measurements reported in patent publication US8008007B2, “S-adenosyl-L-methionine analogs with extended activated groups for transfer by methyltransferases” (RWTH Aachen, priority 2005, dated 2011).

Assays:
M.HhaI-Q82A/N304A [1] = target: T1, M.HhaI-Q82A/N304A (Haemophilus parahaemolyticus, UniProt P05102, N304A/Q82A); test: DNA protection assay with M.HhaI variant Q82A/N304A on phage lambda DNA; type: biochemical; conditions: 1.16 μg phage lambda DNA, cofactor 300 μM, 37° C. for 1 h, enzyme from 1100 ng
T1 construct: made in house
Procedure: Afterwards, the reactions were stopped by heating to 80° C. for 10 min. […] Parallel control experiments were performed with phage lambda DNA in the absence of M.HhaI-Q82A/N304A and in the presence of M.HhaI-Q82A/N304A (1100 ng).

M.HhaI-Q82A/N304A [2] = target: T1, M.HhaI-Q82A/N304A; test: Modification of cytosine-C5 in duplex oligodeoxynucleotide III.IV by M.HhaI-Q82A/N304A, nucleoside analysis by HPLC/ESI-MS; type: biochemical; conditions: duplex III.IV 10 μM, cofactor 300 μM, enzyme 12.5 μM, 37° C. over night
Procedure: After enzymatic transfer the duplex oligodeoxy-nucleotides were enzymatically fragmented and the resulting modified nucleosides were analyzed by reversed-phase HPLC coupled with ESI-MS.
Therefore, the codon for N304 was changed to a codon for alanine by standard Megaprimer PCR mutagenesis (Sambrook and Russell, (2001) Cold Spring Harbor Laboratory Press, 13.31-13.35) and the fragment containing this mutation was cloned into the plasmid containing the Q82A mutation (Example 2B, Example 3B.2. The correct DNA sequence of the complete gene was verified by DNA sequencing. Expression and purification of the Q82A/N304A variant was performed as described for the wild-type enzyme (Kumar et al., (1992) Biochemistry 31, 8648-8653; Klimasauskas et al., (1998) EMBO J. 17, 317-324). The presence of the amino acid substitution was verified by mass spectrometric analysis of purified M.HhaI-Q82A/N304A.
The duplex oligodeoxynucleotide III.IV (compare Scheme 6, Example 2B) was produced by mixing equal molar amounts (2.5 nmol) of complementary single-stranded oligodeoxynucleotide III (5′-[…] CTAT-3′) (SEQ ID NO. 3) and IV (5′-[…]-3′) (SEQ. ID NO. 4) in water, heating at 85° C. for 5 min and slow cooling to room temperature. […] The solution was heated to 80° C. for 10 min, supplemented with Proteinase K and incubated at 55° C. for 2 h. […]

pBR322 plasmid DNA = conditions: modification with M.TaqI or M.HhaI-Q82A/N304A, cofactor 300 μM, 4 h

T1 sequence (P05102 whole entry Q82A/N304A): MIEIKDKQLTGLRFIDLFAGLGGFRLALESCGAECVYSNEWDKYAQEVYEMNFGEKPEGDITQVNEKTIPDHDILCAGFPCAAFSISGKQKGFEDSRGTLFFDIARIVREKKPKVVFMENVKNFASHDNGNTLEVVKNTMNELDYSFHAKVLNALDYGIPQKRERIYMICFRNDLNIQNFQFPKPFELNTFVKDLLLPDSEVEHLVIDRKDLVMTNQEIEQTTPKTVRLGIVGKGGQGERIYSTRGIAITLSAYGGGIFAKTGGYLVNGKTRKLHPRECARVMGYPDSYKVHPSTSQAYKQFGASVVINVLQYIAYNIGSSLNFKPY

Question: Which results are given for `NCCCC(=O)NCC#CC[S+](CCC(N)C(=O)O)CC1OC(n2cnc3c(N)ncnc32)C(O)C1O` (stereo not drawn) [Cofactor 10]?
Answer: protection of phage lambda DNA against R.Hin6I fragmentation (M.HhaI-Q82A/N304A [1]): almost protected phage lambda DNA; cofactor function for M.HhaI-Q82A/N304A (transfer of group Z-R to cytosine-C5) (M.HhaI-Q82A/N304A [2]): functions as a cofactor; two-step labeling of amino-modified pBR322 DNA with fluorescein N-hydroxysuccinimidyl ester (pBR322 plasmid DNA): labeling is sequence-specific
